MIC data for three compounds are collected here from paper PMC12203862, “BroadAMP-GPT: AI-Driven generation of broad-spectrum antimicrobial peptides for combating multidrug-resistant ESKAPE pathogens” (Gut Microbes, 2025).

In brackets after ≈: the same amount, converted by molar mass. Read-outs that look alike come from different tables or passages of the source.

One test relates to S. aureus ATCC 29213. The experiment in a line: microbe, parasite or virus in culture. Particulars: Staphylococcus aureus, ATCC29213. Type of test: cell-based.
Another test has as its system A. baumannii 7979. The test can be described thus: microbe, parasite or virus in culture. It counts as cell-based. As to conditions: Acinetobacter baumannii; Table 1; A. baumannii 7979; broth microdilution; read-out: MIC. The procedure:
(§1) Bacterial strains and growth conditions: All Gram-negative and Gram-positive bacterial strains (Supplementary Table S8) were cultured in Luria-Bertani (LB) or trypticase soy broth (TSB) agar plates, respectively, and incubated overnight at 37 °C unless specifically indicated. A single colony of the tested bacterial strains was inoculated into medium broth with shaking at 220 rpm for further experiments.
(§2) Minimal inhibitory concentrations: Antimicrobial susceptibility testing was performed by broth microdilution method for AMPs against Gram-positive and Gram-negative pathogens above mentioned, following the methods of document CLSI M100-ED34.[43] The MICs were defined as the lowest concentrations that inhibit visible growth of the tested bacteria. E. coli ATCC 25,922 and S. aureus ATCC 29,213 were served as quality controls.
(Dilution methods test growth across graded concentrations, often in twofold steps.)

The subject of another test is A. baumannii AB11. The test can be described thus: microbe, parasite or virus in culture. Type of test: cell-based. Particulars: Acinetobacter baumannii; Table 1; A. baumannii AB11; broth microdilution; read-out: MIC. The procedure: as §1, §2
A further test relates to E. coli ATCC 25922. The test can be described thus: microbe, parasite or virus in culture. As to conditions: Escherichia coli, ATCC25922; Table 1; E. coli ATCC 25922; broth microdilution; read-out: MIC. Type of test: cell-based. The procedure:
as §1, §2

The next test has as its system E. faecalis ES01. The test can be described thus: microbe, parasite or virus in culture. It counts as cell-based. Particulars: Enterococcus faecalis. The procedure:
as §1, §2

The test system of another test is E. faecalis J2. The experiment in a line: microbe, parasite or virus in culture. Type of test: cell-based. Particulars: Enterococcus faecalis. The procedure: as §1, §2
For another test, the system named is E. faecalis JH2-2. The test can be described thus: microbe, parasite or virus in culture. Type of test: cell-based. Particulars: Enterococcus faecalis, JH22. The procedure:
as §1, §2

The next test deals with E. faecalis SF23-1. The test can be described thus: microbe, parasite or virus in culture. As to conditions: Enterococcus faecalis, SF231. It counts as cell-based. The procedure: as §1, §2
The subject of another test is E. faecium HFY01. The experiment in a line: microbe, parasite or virus in culture. Particulars: Enterococcus faecium. Type of test: cell-based. The procedure: as §1, §2
A further test concerns E. faecium MC38. The experiment in a line: microbe, parasite or virus in culture. As to conditions: Enterococcus faecium. Type of test: cell-based. The procedure:
as §1, §2

The next test concerns E. faecium QF31. The test can be described thus: microbe, parasite or virus in culture. As to conditions: Enterococcus faecium. Type of test: cell-based. The procedure:
as §1, §2

In a further test the test system is K. pneumoniae 9-1. The experiment in a line: microbe, parasite or virus in culture. Type of test: cell-based. Particulars: Klebsiella pneumoniae, 91; Table 1; K. pneumoniae 9-1; broth microdilution; read-out: MIC. The procedure:
as §1, §2

The next test has as its system P. aeruginosa PA14. The test can be described thus: microbe, parasite or virus in culture. It counts as cell-based. As to conditions: Pseudomonas aeruginosa; Table 1; P. aeruginosa PA14; broth microdilution; read-out: MIC. The procedure:
as §1, §2

The subject of a further test is P. aeruginosa PAO1. The test can be described thus: microbe, parasite or virus in culture. It counts as cell-based. Particulars: Pseudomonas aeruginosa; Table 1; P. aeruginosa PAO1; broth microdilution; read-out: MIC. The procedure:
as §1, §2

In the next test the test system is S. agalactiae DL03. The experiment in a line: microbe, parasite or virus in culture. Particulars: Streptococcus agalactiae. It counts as cell-based. The procedure:
as §1, §2

Another test concerns S. aureus M147-2. The test can be described thus: microbe, parasite or virus in culture. Type of test: cell-based. As to conditions: Staphylococcus aureus, M1472. The procedure: as §1, §2
The next test relates to S. aureus M92-1. The experiment in a line: microbe, parasite or virus in culture. It counts as cell-based. As to conditions: Staphylococcus aureus, M921. The procedure:
as §1, §2

For the next test, the system named is S. aureus YZSA-15. The experiment in a line: microbe, parasite or virus in culture. It counts as cell-based. Particulars: Staphylococcus aureus, YZSA15. The procedure: as §1, §2
The test system of another test is S. aureus YZSA-21. The experiment in a line: microbe, parasite or virus in culture. It counts as cell-based. As to conditions: Staphylococcus aureus, YZSA21. The procedure: as §1, §2
The next test has as its system S. aureus YZSA-24. The experiment in a line: microbe, parasite or virus in culture. It counts as cell-based. Particulars: Staphylococcus aureus, YZSA24. The procedure: as §1, §2
A further test has as its system S. pyogenes DL02. The test can be described thus: microbe, parasite or virus in culture. It counts as cell-based. Particulars: Streptococcus pyogenes. The procedure:
as §1, §2

For another test, the system named is S. suis SH0918. The test can be described thus: microbe, parasite or virus in culture. It counts as cell-based. Particulars: Streptococcus suis. The procedure:
as §1, §2

The next test has as its system S. suis P1/7. The test can be described thus: microbe, parasite or virus in culture. As to conditions: Streptococcus suis, P1/7. The procedure: as §1
Minimal inhibitory concentrations: Antimicrobial susceptibility testing was performed by broth microdilution method for AMPs against Gram-positive and Gram-negative pathogens above mentioned, following the methods of document CLSI M100-ED34.[43] The MICs were defined as the lowest concentrations that inhibit visible growth of the tested bacteria.

For a further test, the system named is S. enteritis S1. The test can be described thus: organism not typed. It counts as cell-based. Particulars: Table 1; S. enteritis S1; broth microdilution; read-out: MIC. The procedure:
as §1, §2

The mark [1] stands for this setting: Table 1, E. faecalis ES01, ermB, vanB, broth microdilution, read-out: MIC.
The mark [2] stands for this setting: Table 1, E. faecalis J2, ermB, optrA, broth microdilution, read-out: MIC.
The mark [3] stands for this setting: Table 1, E. faecalis JH2-2, broth microdilution, read-out: MIC.
The mark [4] stands for this setting: Table 1, E. faecalis SF23-1, ermB, tetL, cfr, broth microdilution, read-out: MIC.
The mark [5] stands for this setting: Table 1, E. faecium HFY01, broth microdilution, read-out: MIC.
[6] abbreviates: Table 1, E. faecium MC38, ermB, optrA, broth microdilution, read-out: MIC.
Where [7] appears, read: Table 1, E. faecium QF31, ermB, cfr, broth microdilution, read-out: MIC.
Where [8] appears, read: Table 1, S. agalactiae DL03, ermB, broth microdilution, read-out: MIC.
[9] abbreviates: Table 1, S. aureus M147-2, ermB, tetL, cfr, broth microdilution, read-out: MIC.
The mark [10] stands for this setting: Table 1, S. aureus M92-1, ermB, tetL, optrA, broth microdilution, read-out: MIC.
Setting [11] is: Table 1, S. aureus YZSA-15, ermC, vanB, broth microdilution, read-out: MIC.
[12] abbreviates: Table 1, S. aureus YZSA-21, ermC, broth microdilution, read-out: MIC.
[13] abbreviates: Table 1, S. aureus YZSA-24, ermC, mecA, broth microdilution, read-out: MIC.
Where [14] appears, read: Table 1, S. pyogenes DL02, ermB, broth microdilution, read-out: MIC.
Where [15] appears, read: Table 1, S. suis SH0918, ermB, tetO, optrA, broth microdilution, read-out: MIC.

`CCC[C@@H]1C[C@@H](C(=O)N[C@@H]([C@H]2O[C@H](SC)[C@H](O)[C@@H](O)[C@H]2O)[C@H](C)Cl)N(C)C1` [CLI, clindamycin]: the MIC against S. aureus ATCC 29213 is 0.125 µg/mL (≈ 0.294 µM); in the test with A. baumannii 7979, over 64 µg/mL; in the test with A. baumannii AB11, 0.5 µg/mL (≈ 1.18 µM); with E. coli ATCC 25922, over 64 µg/mL; in the test with E. faecalis ES01 (setting [1]), over 64 µg/mL; with E. faecalis J2 (setting [2]) it was over 64 µg/mL. Moreover, the MIC was 0.5 µg/mL (≈ 1.18 µM) in the test on E. faecalis JH2-2 (setting [3]); over 64 µg/mL in the test with E. faecalis SF23-1 (setting [4]); 0.5 µg/mL (≈ 1.18 µM) in the test on E. faecium HFY01 (setting [5]); over 64 µg/mL in the test with E. faecium MC38 (setting [6]); over 64 µg/mL in the test on E. faecium QF31 (setting [7]); over 64 µg/mL in the test on K. pneumoniae 9-1. Moreover, the MIC with P. aeruginosa PA14, in the test on P. aeruginosa PAO1, with S. agalactiae DL03 (setting [8]), in the test with S. aureus M147-2 (setting [9]), in the test with S. aureus M92-1 (setting [10]) and in the test on S. aureus YZSA-15 (setting [11]) was over 64 µg/mL in each case. In addition, the MIC with S. aureus YZSA-21 (setting [12]) is over 64 µg/mL; in the test on S. aureus YZSA-24 (setting [13]), over 64 µg/mL; with S. pyogenes DL02 (setting [14]), over 64 µg/mL; in the test with S. suis SH0918 (setting [15]), over 64 µg/mL; in the test with S. suis P1/7 it was 0.125 µg/mL (≈ 0.294 µM); with S. enteritis S1, over 64 µg/mL.
As for `CO[C@@]1(NC(=O)Cc2cccs2)C(=O)N2C(C(=O)O)=C(COC(N)=O)CS[C@@H]21` [FOX, Cefoxitin], the MIC is 1 µg/mL (≈ 2.34 µM) in the test on S. aureus ATCC 29213 (Table 1, S. aureus ATCC 29213, broth microdilution, CLSI M100-ED34, read-out: MIC); over 64 µg/mL with A. baumannii 7979; 16 µg/mL (≈ 37.4 µM) with A. baumannii AB11; 0.25 µg/mL (≈ 0.585 µM) in the test with E. coli ATCC 25922; over 64 µg/mL in the test on E. faecalis ES01 (setting [1]); over 64 µg/mL in the test on E. faecalis J2 (setting [2]). Also, the MIC with E. faecalis JH2-2 (setting [3]) was over 64 µg/mL; in the test with E. faecalis SF23-1 (setting [4]) it was over 64 µg/mL; with E. faecium HFY01 (setting [5]), 8 µg/mL (≈ 18.7 µM); with E. faecium MC38 (setting [6]) it was over 64 µg/mL; in the test on E. faecium QF31 (setting [7]), over 64 µg/mL; in the test with K. pneumoniae 9-1, over 64 µg/mL. The MIC in the test on P. aeruginosa PA14 is over 64 µg/mL; with P. aeruginosa PAO1 it was over 64 µg/mL; with S. agalactiae DL03 (setting [8]), 4 µg/mL (≈ 9.36 µM); with S. aureus M147-2 (setting [9]), 4 µg/mL (≈ 9.36 µM); in the test with S. aureus M92-1 (setting [10]) it was 4 µg/mL (≈ 9.36 µM); in the test on S. aureus YZSA-15 (setting [11]), 2 µg/mL (≈ 4.68 µM). Besides, the MIC was found to be 4 µg/mL (≈ 9.36 µM) with S. aureus YZSA-21 (setting [12]); 32 µg/mL (≈ 74.9 µM) in the test with S. aureus YZSA-24 (setting [13]); 1 µg/mL (≈ 2.34 µM) with S. pyogenes DL02 (setting [14]); 8 µg/mL (≈ 18.7 µM) with S. suis SH0918 (setting [15]); 1 µg/mL (≈ 2.34 µM) against S. suis P1/7; 32 µg/mL (≈ 74.9 µM) in the test with S. enteritis S1.
`CN[C@H](CC(C)C)C(=O)N[C@H]1C(=O)N[C@@H](CC(N)=O)C(=O)N[C@H]2C(=O)N[C@H]3C(=O)N[C@H](C(=O)N[C@H](C(=O)O)c4cc(O)cc(O)c4-c4cc3ccc4O)[C@H](O)c3ccc(c(Cl)c3)Oc3cc2cc(c3O[C@@H]2O[C@H](CO)[C@@H](O)[C@H](O)[C@H]2O[C@H]2C[C@](C)(N)[C@H](O)[C@H](C)O2)Oc2ccc(cc2Cl)[C@H]1O` [VAN, vancomycin]: the MIC in the test with S. aureus ATCC 29213 worked out at 1 µg/mL (≈ 0.69 µM); against E. faecalis ES01 (ES01), 16 µg/mL (≈ 11 µM); against E. faecalis J2 (J2), 2 µg/mL (≈ 1.38 µM); in the test with E. faecalis JH2-2, 2 µg/mL (≈ 1.38 µM); against E. faecalis SF23-1, 2 µg/mL (≈ 1.38 µM); against E. faecium HFY01 (HFY01), 0.5 µg/mL (≈ 0.345 µM). For the same compound, the MIC with E. faecium MC38 (MC38) was found to be 2 µg/mL (≈ 1.38 µM); against E. faecium QF31 (QF31) it was 2 µg/mL (≈ 1.38 µM); with S. agalactiae DL03 (DL03), 0.125 µg/mL (≈ 0.0863 µM); against S. aureus M147-2, 0.5 µg/mL (≈ 0.345 µM); in the test with S. aureus M92-1 it was 1 µg/mL (≈ 0.69 µM); against S. aureus YZSA-15, 16 µg/mL (≈ 11 µM). The MIC in the test with S. aureus YZSA-21 is 1 µg/mL (≈ 0.69 µM); in the test with S. aureus YZSA-24 it was under 0.06 µg/mL; with S. pyogenes DL02 (DL02), under 0.06 µg/mL; against S. suis SH0918 (SH0918) it was under 0.06 µg/mL; against S. suis P1/7, under 0.06 µg/mL.
